Test: Hygroscopicity test: exposure to controlled relative humidity, XRPD and Karl-Fischer water content before and after
Format: physicochemical
Details: about room temperature; for conversion to another solid state form of Cabazitaxel (polymorphic stability): normal atmospheric humidity, 60%, 80% and 100% RH, two days exposure; for hygroscopicity: various relative humidity conditions
Method: Hygroscopicity Test Procedure:
About 150 mg of a sample was placed to a cell with controlled relative humidity. The samples were exposed to 60%, 80% and 100% relative humidity for a period of two days. XRPD analysis and water content by coulometric Karl-Fischer titration were carried out before and after the exposure to the defined relative humidity. Coulometric Karl-Fischer Titration: Water was determined by KF Oven method (832 KF Thermoprep connected to 831 KF Coulometer). Water from the sample (50 mg of cabazitaxel) was released by nitrogen stream at 130° C. Extraction time was 10 minutes.

Compound | conversion to another solid state form of Cabazitaxel (polymorphic stability) | hygroscopicity
CO[C@H]1C(=O)[C@]2(C)[C@@H](OC)C[C@H]3OC[C@@]3(OC(C)=O)[C@H]2[C@H](OC(=O)c2ccccc2)[C@]2(O)C[C@H](OC(=O)[C@H](O)[C@@H](NC(=O)OC(C)(C)C)c3ccccc3)C(C)=C1C2(C)C [Form X, Cabazitaxel methyl isobutyl ketone solvate] | does not convert to any other forms of Cabazitaxel | low-hygroscopicity form
CO[C@H]1C(=O)[C@]2(C)[C@@H](OC)C[C@H]3OC[C@@]3(OC(C)=O)[C@H]2[C@H](OC(=O)c2ccccc2)[C@]2(O)C[C@H](OC(=O)[C@H](O)[C@@H](NC(=O)OC(C)(C)C)c3ccccc3)C(C)=C1C2(C)C [Form VII, Cabazitaxel ethyl acetate solvate] | does not convert to any other form of Cabazitaxel | low-hygroscopicity form
CO[C@H]1C(=O)[C@]2(C)[C@@H](OC)C[C@H]3OC[C@@]3(OC(C)=O)[C@H]2[C@H](OC(=O)c2ccccc2)[C@]2(O)C[C@H](OC(=O)[C@H](O)[C@@H](NC(=O)OC(C)(C)C)c3ccccc3)C(C)=C1C2(C)C [acetone solvate, Cabazitaxel acetone solvate, reference compound] | already transform to the anhydrous form B after two days | –

Source: patent publication US9394266B2, “Solid state forms of cabazitaxel and processes for preparation thereof” (IVAX International GmbH, priority 2012, dated 2016)
